Data published in DBAASP.
In brackets after ≈: the same amount, converted by molar mass.

Experiments:
Test in all cases: ≥ marks a high value that may be exact or a test limit, other limits are often not marked, values filed in µg/mL are converted to µM
[1] = system: Enterococcus faecalis
[2] = system: Staphylococcus aureus MR
[3] = system: Enterococcus faecalis VR
[4] = system: Bacillus subtilis KCTC 3068
[5] = system: Pseudomonas aeruginosa KCTC 1637
[6] = system: Enterococcus faecium VR
[7] = system: Escherichia coli KCTC 1682
[8] = system: Enterococcus faecium
[9] = system: Staphylococcus aureus KCTC 1621
[10] = system: Staphylococcus epidermidis KCTC 1917
[11] = system: Salmonella typhimurium KCTC 1926
[12] = system: Enterococcus faecalis ATCC 29212
[13] = system: Bacillus subtilis CMCC 63501
[14] = system: Staphylococcus epidermidis ATCC 12228
[15] = system: Escherichia coli DH5alpha
[16] = system: Escherichia coli UB1005
[17] = system: Salmonella enterica subsp. enterica serovar Typhimurium ATCC 14028
[18] = system: Salmonella typhimurium ATCC 7731
[19] = system: Escherichia coli K-12
[20] = system: Escherichia coli ATCC 25922
[21] = system: Staphylococcus aureus ATCC 29213
[22] = system: Candida parapsilosis
[23] = system: Pseudomonas aeruginosa PAO1
[24] = system: Pseudomonas aeruginosa ATCC 27853
[25] = system: Bacillus subtilis ATCC 6633
[26] = system: Staphylococcus aureus ATCC 9144
[27] = system: Escherichia coli ATCC 10536
[28] = system: Pseudomonas aeruginosa ATCC BAA-427
[29] = system: Staphylococcus aureus ATCC 25923
[30] = system: Pseudomonas aeruginosa H103
[31] = system: Escherichia coli ESBL 63103
[32] = system: Enterococcus faecium mic80
[33] = system: Staphylococcus aureus C623
[34] = system: Pseudomonas aeruginosa 213
[35] = system: Candida albicans C627
[36] = system: Pseudomonas aeruginosa LES400

| MIC [1] [µM] | MIC [2] [µM] | MIC [3] [µM] | MIC [4] [µM] | MIC [5] [µM] | MIC [6] [µM] | MIC [7] [µM] | MIC [8] [µM] | MIC [9] [µM] | MIC [10] [µM] | MIC [11] [µM] | MIC [29] [µM] | Compound | further results |
| --- | --- | --- | --- | --- | --- | --- | --- | --- | --- | --- | --- | --- | --- |
| – | – | – | 4 (≈ 6.87 µg/mL) | ≥ 32 | – | 16 (≈ 27.5 µg/mL) | – | 16 (≈ 27.5 µg/mL) | 16 (≈ 27.5 µg/mL) | 16 (≈ 27.5 µg/mL) | – | CC[C@H](C)[C@H](NC(=O)[C@H](CCCN=C(N)N)NC(=O)[C@H](CCC(N)=O)NC(=O)[C@@H](NC(=O)[C@@H](NC(=O)[C@H](CCCN=C(N)N)NC(=O)[C@H](CCCCN)NC(=O)[C@@H](N)Cc1ccccc1)[C@@H](C)CC)C(C)C)C(=O)N[C@@H](CCCCN)C(=O)N[C@@H](CC(=O)O)C(=O)N[C@@H](Cc1ccccc1)C(=O)N[C@@H](CC(C)C)C(=O)N[C@@H](CCCN=C(N)N)C(N)=O [FKRIVQRIKDFLR] | MIC [12]: 32 µM (≈ 55 µg/mL); MIC [13]: 16 µM (≈ 27.5 µg/mL); MIC [14]: 8 µM (≈ 13.7 µg/mL); MIC [15]: ≥ 116 µM; MIC [16]: 16 µM (≈ 27.5 µg/mL); MIC [17]: 32 µM (≈ 55 µg/mL); MIC [18]: 16 µM (≈ 27.5 µg/mL); MIC [19]: ≥ 40 µM; MIC [20]: 16 µM (≈ 27.5 µg/mL); MIC [21]: 16 µM (≈ 27.5 µg/mL); MIC [22]: ≥ 116 µM; MIC [23]: 16 µM (≈ 27.5 µg/mL); MIC [24]: 8 µM (≈ 13.7 µg/mL) |
| – | – | – | – | – | – | – | – | – | – | – | 1 (≈ 1.52 µg/mL) | CC[C@H](C)[C@H](N)C(=O)N[C@@H](CC(C)C)C(=O)NCC(=O)N[C@@H](CCCCN)C(=O)N[C@H](C(=O)N[C@@H](Cc1c[nH]c2ccccc12)C(=O)N[C@@H](CCCCN)C(=O)NCC(=O)N[C@@H](CCCCN)C(=O)N[C@@H](CCCCN)C(=O)N[C@@H](CO)C(=O)N[C@@H](CC(C)C)C(=O)N[C@@H](Cc1ccccc1)C(N)=O)[C@@H](C)CC [ILGKIWKGKKSLF] | MIC [28]: 2 µM (≈ 3.03 µg/mL); MIC [25]: 1 µM (≈ 1.52 µg/mL); MIC [27]: 1 µM (≈ 1.52 µg/mL); MIC [20]: 2 µM (≈ 3.03 µg/mL) |

Second part, the molecule before the results:

| Compound | MIC [1] [µM] | MIC [2] [µM] | MIC [3] [µM] | MIC [4] [µM] | MIC [5] [µM] | MIC [6] [µM] | MIC [7] [µM] | MIC [8] [µM] | MIC [9] [µM] | MIC [10] [µM] | MIC [11] [µM] | MIC [29] [µM] | further results |
| --- | --- | --- | --- | --- | --- | --- | --- | --- | --- | --- | --- | --- | --- |
| CC[C@H](C)[C@H](NC(=O)[C@H](CS)NC(=O)[C@H](Cc1cnc[nH]1)NC(=O)[C@H](C)NC(=O)[C@H](C)N)C(=O)N[C@@H](CCC(N)=O)C(=O)N[C@@H](CC(C)C)C(=O)NCC(=O)N[C@@H](CCCCN)C(=O)N[C@@H](CCCN=C(N)N)C(N)=O [AAHCIQLGKR] | 30 (≈ 32.9 µg/mL) | 30 (≈ 32.9 µg/mL) | 30 (≈ 32.9 µg/mL) | 30 (≈ 32.9 µg/mL) | 30 (≈ 32.9 µg/mL) | 30 (≈ 32.9 µg/mL) | 30 (≈ 32.9 µg/mL) | 30 (≈ 32.9 µg/mL) | 30 (≈ 32.9 µg/mL) | 30 (≈ 32.9 µg/mL) | 30 (≈ 32.9 µg/mL) | – | – |
| CC(C)C[C@H](NC(=O)[C@H](CS)NC(=O)[C@H](Cc1cnc[nH]1)NC(=O)[C@H](C)NC(=O)[C@H](C)N)C(=O)N[C@@H](C)C(=O)N[C@@H](CCCCN)C(=O)N[C@@H](CCCN=C(N)N)C(=O)N[C@@H](CCCCN)C(=O)N[C@@H](CCCCN)C(N)=O [AAHCLAKRKK] | 30 | 30 | 30 | 30 | 30 | 30 | 30 | 30 | 30 | 30 | 30 | – | – |
| CC(C)C[C@H](NC(=O)[C@H](Cc1ccccc1)NC(=O)[C@H](CC(C)C)NC(=O)[C@H](CS)NC(=O)[C@H](Cc1cnc[nH]1)NC(=O)[C@@H](NC(=O)[C@H](C)N)[C@@H](C)O)C(=O)N[C@@H](CCCCN)C(=O)N[C@@H](CCCCN)C(=O)N[C@@H](CCCN=C(N)N)C(N)=O [ATHCLFLKKR] | 30 | 15 | 30 | 7.5 | 15 | 30 | 15 | 30 | 15 | 15 | 15 | – | – |
| CC[C@H](C)[C@H](NC(=O)CN)C(=O)NCC(=O)N[C@@H](C)C(=O)N[C@H](C(=O)N[C@@H](CC(C)C)C(=O)N[C@@H](CCCCN)C(=O)N[C@H](C(=O)N[C@@H](C)C(=O)N[C@H](C(=O)N[C@H](C(=O)NCC(=O)N[C@@H](CC(C)C)C(=O)N1CCC[C@H]1C(=O)N[C@@H](C)C(=O)N[C@@H](CC(C)C)C(=O)N[C@H](C(=O)N[C@@H](CO)C(=O)N[C@@H](Cc1c[nH]c2ccccc12)C(=O)N[C@H](C(=O)N[C@@H](CCCCN)C(=O)N[C@@H](CCCN=C(N)N)C(=O)N[C@@H](CCCCN)C(=O)N[C@@H](CCCN=C(N)N)C(=O)N[C@@H](CCC(N)=O)C(=O)N[C@@H](CCC(N)=O)C(N)=O)[C@@H](C)CC)[C@@H](C)CC)[C@@H](C)O)[C@@H](C)O)C(C)C)C(C)C [GIGAVLKVATTGLPALISWIKRKRQQ] | – | – | – | – | – | – | – | – | – | – | – | – | MIC [15]: 4.3 µM (≈ 12.1 µg/mL); MIC [25]: 2.4 µM (≈ 6.73 µg/mL); MIC [26]: 3.6 µM (≈ 10.1 µg/mL); MIC [27]: 3.2 µM (≈ 8.97 µg/mL) |
| NCCCC[C@H](N)C(=O)N[C@@H](Cc1c[nH]c2ccccc12)C(=O)N[C@@H](Cc1c[nH]c2ccccc12)C(=O)N[C@@H](CCCN=C(N)N)C(=O)N[C@@H](Cc1c[nH]c2ccccc12)C(=O)N[C@@H](CCCN=C(N)N)C(=O)N[C@@H](CCCN=C(N)N)C(=O)N[C@@H](Cc1c[nH]c2ccccc12)C(=O)N[C@@H](Cc1c[nH]c2ccccc12)C(=O)O [KWWRWRRWW] | – | – | – | – | – | – | – | – | – | – | – | 5.18 (≈ 8 µg/mL) | MIC [30]: 20.7 µM (≈ 32 µg/mL); MIC [31]: ≥ 82.8 µM; MIC [32]: 20.7 µM (≈ 32 µg/mL); MIC [33]: 5.18 µM (≈ 8 µg/mL); MIC [34]: ≥ 82.8 µM; MIC [35]: 5.18 µM (≈ 8 µg/mL); MIC [36]: ≥ 41.4 µM |
| CC[C@H](C)[C@H](NC(=O)[C@H](Cc1c[nH]c2ccccc12)NC(=O)[C@H](Cc1c[nH]c2ccccc12)NC(=O)[C@H](CCCN=C(N)N)NC(=O)[C@H](CCCCN)NC(=O)[C@H](Cc1c[nH]c2ccccc12)NC(=O)[C@H](CC(C)C)NC(=O)[C@@H](N)CCCN=C(N)N)C(=O)N[C@@H](CCCN=C(N)N)C(=O)O [RLWKRWWIR] | – | – | – | – | – | – | – | – | – | – | – | 91.4 (≈ 128 µg/mL) | MIC [30]: ≥ 91.4 µM; MIC [31]: ≥ 45.7 µM; MIC [32]: ≥ 45.7 µM; MIC [33]: ≥ 45.7 µM; MIC [34]: ≥ 91.4 µM; MIC [35]: 11.4 µM (≈ 16 µg/mL); MIC [36]: ≥ 91.4 µM |
